Assay results taken from the supplement of paper PMC10307832.

These cell lines were tested with C1CSC2=C(C(=O)N1)SC3=C2C=C(C=C3)O [kb NB 142-70] + Nc1nc2[nH]cc(CCc3ccc(C(=O)N[C@@H](CCC(=O)O)C(=O)O)cc3)c2c(=O)[nH]1 [Pemetrexed] (partner 0.2 µM) (assay: relative viability (nuclei count vs DMSO), 5 days (fraction); higher = more cells survive). Settings: first compound 0.1 µM.
In short: (§1)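 Dosing by pin tool came one day after lung cancer cell lines were seeded in 1536-well plates, using either one drug or a fixed anchor-drug dose plus five library-drug doses (not always all listed) in √10 steps. After 5 days, nuclei were counted on 4× images. Relative viability is treated-well nuclei count divided by vehicle-well nuclei count, and values are medians of duplicate plates.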

| Cell Line | relative viability |
| --- | --- |
| NCI-H3122 | 0.2 |

Same assay, conditions: first compound 1 µM

| Cell Line | relative viability |
| --- | --- |
| LK-2 | 0.215 |
| NCI-H2087 | 0.681 |
| SK-MES-1 | 1.11 |
| H3255 | 0.568 |
| COR-L23 | 0.201 |
| COR-L 105 | 1.08 |
| LOU-NH91 | 0.462 |
| ChaGo-K-1 | 0.26 |
| NCI-H2170 | 0.296 |
| NCI-H2405 | 0.995 |
| HOP-62 | 0.361 |
| NCI-H522 | 0.871 |
| LU99A | 0.196 |
| BEN | 0.761 |
| HARA | 0.293 |
| SW 900 | 0.523 |
| HCC-78 | 0.907 |
| NCI-H322M | 0.631 |
| LCLC-97TM1 | 0.186 |
| NCI-H2009 | 1.09 |

| Cell Line | relative viability |
| --- | --- |
| A-427 | 1.01 |
| NCI-H441 | 0.248 |
| NCI-H661 | 0.867 |
| NCI-H1734 | 0.369 |
| NCI-H460 | 0.0629 |
| NCI-H2347 | 0.449 |
| SK-LU-1 | 0.954 |
| NCI-H1395 | 0.872 |
| 201T | 0.349 |
| NCI-H1915 | 0.532 |
| HCC-827 | 0.243 |
| LXF-289 | 0.989 |
| NCI-H23 | 0.594 |
| NCI-H647 | 0.192 |
| CAL-12T | 1.34 |
| NCI-H1651 | 0.578 |
| EPLC-272H | 0.386 |
| NCI-H2228 | 0.376 |
| NCI-H1355 | 1.06 |
| NCI-H3122 | 0.21 |

Same assay, conditions: first compound 3.162 µM

| Cell Line | relative viability |
| --- | --- |
| LK-2 | 0.224 |
| NCI-H2087 | 0.527 |
| SK-MES-1 | 0.548 |
| H3255 | 0.58 |
| COR-L23 | 0.196 |
| COR-L 105 | 0.925 |
| LOU-NH91 | 0.386 |
| ChaGo-K-1 | 0.257 |
| NCI-H2170 | 0.333 |
| NCI-H2405 | 0.523 |
| HOP-62 | 0.388 |
| NCI-H522 | 0.745 |
| LU99A | 0.187 |
| BEN | 0.575 |
| HARA | 0.225 |
| SW 900 | 0.468 |
| HCC-78 | 0.899 |
| NCI-H322M | 0.45 |
| LCLC-97TM1 | 0.182 |
| NCI-H2009 | 0.977 |

| Cell Line | relative viability |
| --- | --- |
| A-427 | 0.873 |
| NCI-H441 | 0.196 |
| NCI-H661 | 0.856 |
| NCI-H1734 | 0.376 |
| NCI-H460 | 0.0654 |
| NCI-H2347 | 0.426 |
| SK-LU-1 | 0.412 |
| NCI-H1395 | 0.833 |
| 201T | 0.318 |
| NCI-H1915 | 0.474 |
| HCC-827 | 0.267 |
| LXF-289 | 0.715 |
| NCI-H23 | 0.367 |
| NCI-H647 | 0.178 |
| CAL-12T | 1.27 |
| NCI-H1651 | 0.552 |
| EPLC-272H | 0.176 |
| NCI-H2228 | 0.24 |
| NCI-H1355 | 1.04 |
| NCI-H3122 | 0.289 |

What follows are cell lines tested with NCC(=O)Nc1ccc(-n2nc(C(F)(F)F)cc2-c2ccc3c(ccc4ccccc43)c2)cc1 + Cc1nc(Nc2ncc(C(=O)Nc3c(C)cccc3Cl)s2)cc(N2CCN(CCO)CC2)n1 [Dasatinib] (partner 0.075 µM) in the same assay as above. Settings: first compound 0.02 µM.
In short: as §1

| Cell Line | relative viability |
| --- | --- |
| LK-2 | 0.32 |
| NCI-H2087 | 0.862 |
| SK-MES-1 | 0.473 |
| H3255 | 0.477 |
| COR-L23 | 0.481 |
| COR-L 105 | 0.388 |
| LOU-NH91 | 0.577 |
| ChaGo-K-1 | 0.53 |
| NCI-H2170 | 0.522 |
| NCI-H2405 | 0.225 |
| HOP-62 | 0.725 |
| LU99A | 0.505 |
| BEN | 0.283 |
| HARA | 0.227 |
| HCC-78 | 0.466 |
| NCI-H322M | 0.268 |
| LCLC-97TM1 | 0.901 |
| NCI-H2009 | 0.314 |
| NCI-H441 | 0.444 |

| Cell Line | relative viability |
| --- | --- |
| NCI-H661 | 0.866 |
| NCI-H1734 | 0.468 |
| NCI-H460 | 0.425 |
| NCI-H2347 | 0.36 |
| SK-LU-1 | 0.165 |
| NCI-H1395 | 0.442 |
| 201T | 0.518 |
| NCI-H1915 | 0.26 |
| HCC-827 | 0.371 |
| LXF-289 | 0.188 |
| NCI-H23 | 0.885 |
| NCI-H647 | 0.205 |
| CAL-12T | 0.494 |
| NCI-H1651 | 0.319 |
| EPLC-272H | 0.35 |
| NCI-H2228 | 0.561 |
| NCI-H1355 | 0.664 |
| NCI-H3122 | 0.862 |

Same assay, conditions: first compound 0.06325 µM

| Cell Line | relative viability |
| --- | --- |
| LK-2 | 0.325 |
| NCI-H2087 | 0.854 |
| SK-MES-1 | 0.372 |
| H3255 | 0.343 |
| COR-L23 | 0.504 |
| COR-L 105 | 0.426 |
| LOU-NH91 | 0.601 |
| ChaGo-K-1 | 0.604 |
| NCI-H2170 | 0.695 |
| NCI-H2405 | 0.202 |
| HOP-62 | 0.629 |
| NCI-H522 | 0.831 |
| LU99A | 0.602 |
| BEN | 0.332 |
| HARA | 0.241 |
| SW 900 | 0.69 |
| HCC-78 | 0.432 |
| NCI-H322M | 0.266 |
| LCLC-97TM1 | 0.809 |
| NCI-H2009 | 0.332 |

| Cell Line | relative viability |
| --- | --- |
| A-427 | 0.692 |
| NCI-H441 | 0.665 |
| NCI-H661 | 1.01 |
| NCI-H1734 | 0.472 |
| NCI-H460 | 0.597 |
| NCI-H2347 | 0.365 |
| SK-LU-1 | 0.186 |
| NCI-H1395 | 0.422 |
| 201T | 0.571 |
| NCI-H1915 | 0.338 |
| HCC-827 | 0.282 |
| LXF-289 | 0.246 |
| NCI-H23 | 0.781 |
| NCI-H647 | 0.167 |
| CAL-12T | 0.691 |
| NCI-H1651 | 0.447 |
| EPLC-272H | 0.406 |
| NCI-H2228 | 0.571 |
| NCI-H1355 | 0.813 |
| NCI-H3122 | 0.837 |

Same assay, conditions: first compound 0.2 µM

| Cell Line | relative viability |
| --- | --- |
| LK-2 | 0.271 |
